Results published in the NIST ThermoML archive (doi:10.1021/je060271a).
± gives the expanded uncertainty stated by the source.

Settings: 303.15 K, Liquid, Vibrating tube method

CCCCC(=O)OCC(COC(=O)CCCC)(COC(=O)CCCC)COC(=O)CCCC [pentaerythritol tetrapentanoate]
Settings | mass density [kg/m3]
4917.5 kPa | 1014 ± 1.2
4937.6 kPa | 1014 ± 1.2
4960.8 kPa | 1014 ± 1.2
4980.3 kPa | 1014.2 ± 1.2
5000.8 kPa | 1014.1 ± 1.2
5025.3 kPa | 1014.2 ± 1.2
5046.6 kPa | 1014.1 ± 1.2
5067.7 kPa | 1014.1 ± 1.2
5090.5 kPa | 1014.1 ± 1.2
5111.3 kPa | 1014.1 ± 1.2
5136.1 kPa | 1014.1 ± 1.2
5153.9 kPa | 1014.2 ± 1.2
5159.6 kPa | 1014.2 ± 1.2
5160.1 kPa | 1014.2 ± 1.2
5161.3 kPa | 1014.2 ± 1.2
5164.9 kPa | 1014.2 ± 1.2
5167.4 kPa | 1014.3 ± 1.2
5169.1 kPa | 1014.2 ± 1.2
5170.1 kPa | 1014.2 ± 1.2
5173.9 kPa | 1014.1 ± 1.2
5178.6 kPa | 1014.2 ± 1.2
5179.3 kPa | 1014.2 ± 1.2
5180.5 kPa | 1014.2 ± 1.2
5181.4 kPa | 1014.2 ± 1.2
5181.7 kPa | 1014.2 ± 1.2
5182.6 kPa | 1014.3 ± 1.2
5182.9 kPa | 1014.3 ± 1.2
5183.8 kPa | 1014.2 ± 1.2
5184.3 kPa | 1014.2 ± 1.2
5184.7 kPa | 1014.2 ± 1.2
5185.4 kPa | 1014.2 ± 1.2
5185.5 kPa | 1014.3 ± 1.2
5189.7 kPa | 1014.1 ± 1.2
5199.6 kPa | 1014.3 ± 1.2
5209.2 kPa | 1014.3 ± 1.2
5217.7 kPa | 1014.2 ± 1.2
5223.9 kPa | 1014.2 ± 1.2
5239.9 kPa | 1014.2 ± 1.2
5266.9 kPa | 1014.4 ± 1.2
5289.9 kPa | 1014.2 ± 1.2
5312.7 kPa | 1014.4 ± 1.2
5340.7 kPa | 1014.1 ± 1.2
5364.2 kPa | 1014.3 ± 1.2
5388.3 kPa | 1014.4 ± 1.2
5417.9 kPa | 1014.3 ± 1.2
5443 kPa | 1014.4 ± 1.2
5468.4 kPa | 1014.4 ± 1.2
5493.1 kPa | 1014.4 ± 1.2
5518.4 kPa | 1014.5 ± 1.2
5548.5 kPa | 1014.4 ± 1.2
5573.5 kPa | 1014.4 ± 1.2
5599.8 kPa | 1014.5 ± 1.2
5631 kPa | 1014.4 ± 1.2
5657.1 kPa | 1014.5 ± 1.2
5684.4 kPa | 1014.6 ± 1.2
5712.8 kPa | 1014.5 ± 1.2
5747 kPa | 1014.4 ± 1.2
5774.2 kPa | 1014.6 ± 1.2
5801.5 kPa | 1014.6 ± 1.2
5829.1 kPa | 1014.6 ± 1.2
5862.5 kPa | 1014.7 ± 1.2
5891.4 kPa | 1014.7 ± 1.2
5920.4 kPa | 1014.8 ± 1.2
5955.2 kPa | 1014.6 ± 1.2
5985.3 kPa | 1014.7 ± 1.2
6015.3 kPa | 1014.7 ± 1.2
6045.8 kPa | 1014.8 ± 1.2
6082.1 kPa | 1014.7 ± 1.2
6112.3 kPa | 1014.8 ± 1.2
6149.7 kPa | 1014.8 ± 1.2
6181.5 kPa | 1014.8 ± 1.2
6213.5 kPa | 1014.9 ± 1.2
6246.6 kPa | 1014.8 ± 1.2
6279.6 kPa | 1014.9 ± 1.2
6319.4 kPa | 1014.9 ± 1.2
6353.6 kPa | 1015 ± 1.2
6388.4 kPa | 1014.9 ± 1.2
6430.4 kPa | 1015 ± 1.2
6466 kPa | 1014.9 ± 1.2
6496.2 kPa | 1015 ± 1.2
6524.4 kPa | 1015.1 ± 1.2
6558.6 kPa | 1015.1 ± 1.2
6587.6 kPa | 1015.1 ± 1.2
6617.8 kPa | 1015.1 ± 1.2
6648.1 kPa | 1015.2 ± 1.2
6678.6 kPa | 1015.1 ± 1.2
6714 kPa | 1015.2 ± 1.2
6743.7 kPa | 1015.3 ± 1.2
6774.5 kPa | 1015.2 ± 1.2
6811.1 kPa | 1015.3 ± 1.2
6842.3 kPa | 1015.2 ± 1.2
6873.4 kPa | 1015.3 ± 1.2
6911.1 kPa | 1015.3 ± 1.2
6943.4 kPa | 1015.4 ± 1.2
6975.7 kPa | 1015.2 ± 1.2
7008.7 kPa | 1015.3 ± 1.2
7048.1 kPa | 1015.3 ± 1.2
7083.3 kPa | 1015.5 ± 1.2
7119.9 kPa | 1015.4 ± 1.2
7154.6 kPa | 1015.4 ± 1.2
7190.2 kPa | 1015.4 ± 1.2
7232.8 kPa | 1015.5 ± 1.2
7266.1 kPa | 1015.6 ± 1.2
7296.5 kPa | 1015.5 ± 1.2
7326.2 kPa | 1015.5 ± 1.2
7361.8 kPa | 1015.6 ± 1.2
7392.7 kPa | 1015.6 ± 1.2
7425.7 kPa | 1015.6 ± 1.2
7461.8 kPa | 1015.7 ± 1.2
7491.3 kPa | 1015.7 ± 1.2
7529.6 kPa | 1015.6 ± 1.2
7561.2 kPa | 1015.7 ± 1.2
7593.6 kPa | 1015.8 ± 1.2
7626.1 kPa | 1015.9 ± 1.2
7659.1 kPa | 1015.6 ± 1.2
7692.2 kPa | 1015.8 ± 1.2
7732.6 kPa | 1015.9 ± 1.2
7766.1 kPa | 1015.8 ± 1.2
7800.6 kPa | 1015.9 ± 1.2
7835 kPa | 1015.7 ± 1.2
7876.5 kPa | 1015.9 ± 1.2
7911.6 kPa | 1016 ± 1.2
7947.1 kPa | 1016 ± 1.2
7990.4 kPa | 1016 ± 1.2
8026.7 kPa | 1015.9 ± 1.2
8062.9 kPa | 1016.1 ± 1.2
8107.6 kPa | 1016.1 ± 1.2
8145.4 kPa | 1016.1 ± 1.2
8184.2 kPa | 1016.2 ± 1.2
8222.5 kPa | 1016.2 ± 1.2
8262.2 kPa | 1016.2 ± 1.2
8293.2 kPa | 1016.2 ± 1.2
8323.8 kPa | 1016.3 ± 1.2
8354.7 kPa | 1016.2 ± 1.2
8392.8 kPa | 1016.3 ± 1.2
8424.5 kPa | 1016.1 ± 1.2
8457.1 kPa | 1016.3 ± 1.2
8489 kPa | 1016.4 ± 1.2
8528 kPa | 1016.3 ± 1.2
8560.4 kPa | 1016.4 ± 1.2
8593.7 kPa | 1016.5 ± 1.2
8633.4 kPa | 1016.4 ± 1.2
8666.8 kPa | 1016.3 ± 1.2
8707.5 kPa | 1016.4 ± 1.2
8742.2 kPa | 1016.4 ± 1.2
8776.3 kPa | 1016.6 ± 1.2
8818.4 kPa | 1016.6 ± 1.2
8854.8 kPa | 1016.4 ± 1.2
8890.8 kPa | 1016.5 ± 1.2
8920.7 kPa | 1016.5 ± 1.2
8952.9 kPa | 1016.6 ± 1.2
8979.8 kPa | 1016.7 ± 1.2
9013.1 kPa | 1016.5 ± 1.2
9039.8 kPa | 1016.6 ± 1.2
9066.8 kPa | 1016.6 ± 1.2
9100.5 kPa | 1016.7 ± 1.2
9128.4 kPa | 1016.7 ± 1.2
9157.4 kPa | 1016.6 ± 1.2
9191.7 kPa | 1016.8 ± 1.2
9218.7 kPa | 1016.8 ± 1.2
